Results from ChEMBL document CHEMBL4507295 (2021).

Columns and labels:
[1] = biological target: GABA-A receptor; alpha-5/beta-3/gamma-2 (Homo sapiens) (UniProt P18507+P28472+P31644); assay: GABA-alpha5beta3gamma2 Eurofins-Panlabs radioligand binding assay; assay type: protein-complex assay; set-up: ligand concentration 1 nM; details: Compound concentration 10.0 uM
[2] = biological target: High affinity choline transporter 1 (Homo sapiens) (UniProt Q9GZV3); assay: Transporter, Choline Eurofins-Panlabs radioligand binding assay; set-up: ligand concentration 0.75 nM; details: Rattus norvegicus; Compound concentration 10.0 uM
[3] = biological target: Beta-2 adrenergic receptor (Homo sapiens) (UniProt P07550); details: Compound concentration 10.0 uM
Chain of Beta-2 adrenergic receptor (Homo sapiens) (P07550 whole entry, looked up): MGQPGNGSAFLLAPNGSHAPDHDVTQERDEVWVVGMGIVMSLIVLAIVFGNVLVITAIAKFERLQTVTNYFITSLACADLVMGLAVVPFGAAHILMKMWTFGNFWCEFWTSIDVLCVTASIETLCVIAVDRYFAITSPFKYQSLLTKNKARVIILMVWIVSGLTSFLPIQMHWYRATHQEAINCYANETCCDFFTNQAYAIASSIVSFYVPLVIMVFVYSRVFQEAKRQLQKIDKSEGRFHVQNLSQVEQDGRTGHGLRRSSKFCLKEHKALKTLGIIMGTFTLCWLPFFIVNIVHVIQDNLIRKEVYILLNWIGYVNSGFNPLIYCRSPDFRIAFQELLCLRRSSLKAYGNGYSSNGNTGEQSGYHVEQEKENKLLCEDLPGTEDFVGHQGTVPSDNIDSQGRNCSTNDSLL

[4] = biological target: T1, Tyrosine-protein phosphatase non-receptor type 2 (Homo sapiens) (UniProt P17706); assay: Protein Tyrosine Phosphatase, PTPN2 (TCPTP) Eurofins-Panlabs enzyme assay; set-up: substrate with concentration DiFMUP, incubation time 60 min, incubation temperature 37 °C
T1 sequence (whole entry): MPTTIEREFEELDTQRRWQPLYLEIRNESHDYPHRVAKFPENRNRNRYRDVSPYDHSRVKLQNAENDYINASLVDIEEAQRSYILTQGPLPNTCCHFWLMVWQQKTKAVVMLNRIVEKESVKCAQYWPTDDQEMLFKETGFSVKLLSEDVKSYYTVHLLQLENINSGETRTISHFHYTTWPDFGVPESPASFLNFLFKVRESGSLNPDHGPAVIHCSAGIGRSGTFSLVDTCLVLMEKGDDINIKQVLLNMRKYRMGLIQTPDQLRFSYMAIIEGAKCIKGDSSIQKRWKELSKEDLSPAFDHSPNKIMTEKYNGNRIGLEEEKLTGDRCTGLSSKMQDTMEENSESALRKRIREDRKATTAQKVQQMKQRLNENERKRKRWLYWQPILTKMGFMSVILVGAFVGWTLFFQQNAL

[5] = biological target: D(1A) dopamine receptor (Homo sapiens) (UniProt P21728); details: Compound concentration 10.0 uM
[6] = biological target: Sodium-dependent serotonin transporter (Homo sapiens) (UniProt P31645); details: Compound concentration 10.0 uM
[7] = biological target: D(3) dopamine receptor (Homo sapiens) (UniProt P35462); details: Compound concentration 10.0 uM
Chain of D(3) dopamine receptor (Homo sapiens) (P35462 whole entry): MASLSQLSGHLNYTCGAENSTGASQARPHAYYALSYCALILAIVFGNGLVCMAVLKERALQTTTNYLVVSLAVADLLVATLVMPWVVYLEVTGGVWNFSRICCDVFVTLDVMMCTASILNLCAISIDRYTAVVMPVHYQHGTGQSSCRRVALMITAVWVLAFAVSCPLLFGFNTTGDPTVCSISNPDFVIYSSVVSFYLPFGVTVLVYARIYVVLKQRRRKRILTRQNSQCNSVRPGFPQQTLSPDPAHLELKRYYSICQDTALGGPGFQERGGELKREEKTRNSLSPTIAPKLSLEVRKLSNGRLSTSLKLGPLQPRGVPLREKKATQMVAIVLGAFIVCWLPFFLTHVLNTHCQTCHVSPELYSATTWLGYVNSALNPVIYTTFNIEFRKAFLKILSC

Rattus norvegicus = species on record: Rattus norvegicus; assay: Adrenergic α2, Non-selective Eurofins-Panlabs radioligand binding assay; assay type: protein assay; details: Compound concentration 10.0 uM
[8] = biological target: Cysteinyl leukotriene receptor 1 (Homo sapiens) (UniProt Q9Y271); assay: Inhibition of Leukotriene, Cysteinyl CysLT1 at 10 µM in the Eurofins-Panlabs radioligand binding assay (Eurofins_assay_250460); set-up: ligand concentration 0.3 nM, non-specific ligand with concentration 0.3 µM Leukotriene D4, incubation time 30 min, incubation temperature 25 °C; details: Compound concentration 10.0 uM
Chain of Cysteinyl leukotriene receptor 1 (Homo sapiens) (Q9Y271 whole entry): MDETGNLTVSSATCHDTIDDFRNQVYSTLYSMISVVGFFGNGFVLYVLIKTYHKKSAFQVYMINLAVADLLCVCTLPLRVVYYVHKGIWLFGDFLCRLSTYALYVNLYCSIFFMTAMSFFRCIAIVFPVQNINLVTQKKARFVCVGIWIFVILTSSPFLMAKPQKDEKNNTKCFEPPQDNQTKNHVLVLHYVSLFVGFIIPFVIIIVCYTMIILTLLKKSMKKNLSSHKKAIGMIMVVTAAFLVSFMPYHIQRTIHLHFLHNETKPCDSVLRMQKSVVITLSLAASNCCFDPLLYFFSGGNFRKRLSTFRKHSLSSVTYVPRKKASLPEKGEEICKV

[9] = biological target: Vasoactive intestinal polypeptide receptor 1 (Homo sapiens) (UniProt P32241); assay: Inhibition of Vasoactive Intestinal Peptide VIP1 at 10 µM in the Eurofins-Panlabs radioligand binding assay (Eurofins_assay_287010); details: Compound concentration 10.0 uM
Chain of Vasoactive intestinal polypeptide receptor 1 (Homo sapiens) (P32241 whole entry): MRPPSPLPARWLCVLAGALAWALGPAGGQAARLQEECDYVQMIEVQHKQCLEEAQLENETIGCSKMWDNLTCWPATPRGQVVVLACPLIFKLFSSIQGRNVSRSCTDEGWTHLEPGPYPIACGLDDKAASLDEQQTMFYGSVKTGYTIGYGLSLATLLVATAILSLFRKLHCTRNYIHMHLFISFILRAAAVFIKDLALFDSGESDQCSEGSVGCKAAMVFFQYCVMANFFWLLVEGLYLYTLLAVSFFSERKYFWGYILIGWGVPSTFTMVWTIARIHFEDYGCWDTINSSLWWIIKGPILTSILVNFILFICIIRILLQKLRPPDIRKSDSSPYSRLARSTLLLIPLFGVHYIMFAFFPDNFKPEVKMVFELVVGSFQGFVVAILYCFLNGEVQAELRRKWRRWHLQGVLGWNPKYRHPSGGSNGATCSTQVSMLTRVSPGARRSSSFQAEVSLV

[10] = biological target: Inositol 1,4,5-trisphosphate-gated calcium channel ITPR1 (Homo sapiens) (UniProt Q14643); assay: Inositol Trisphosphate IP3 Eurofins-Panlabs radioligand binding assay; details: Rattus norvegicus; Compound concentration 10.0 uM
Chain of Inositol 1,4,5-trisphosphate-gated calcium channel ITPR1 (Homo sapiens) (Q14643 whole entry): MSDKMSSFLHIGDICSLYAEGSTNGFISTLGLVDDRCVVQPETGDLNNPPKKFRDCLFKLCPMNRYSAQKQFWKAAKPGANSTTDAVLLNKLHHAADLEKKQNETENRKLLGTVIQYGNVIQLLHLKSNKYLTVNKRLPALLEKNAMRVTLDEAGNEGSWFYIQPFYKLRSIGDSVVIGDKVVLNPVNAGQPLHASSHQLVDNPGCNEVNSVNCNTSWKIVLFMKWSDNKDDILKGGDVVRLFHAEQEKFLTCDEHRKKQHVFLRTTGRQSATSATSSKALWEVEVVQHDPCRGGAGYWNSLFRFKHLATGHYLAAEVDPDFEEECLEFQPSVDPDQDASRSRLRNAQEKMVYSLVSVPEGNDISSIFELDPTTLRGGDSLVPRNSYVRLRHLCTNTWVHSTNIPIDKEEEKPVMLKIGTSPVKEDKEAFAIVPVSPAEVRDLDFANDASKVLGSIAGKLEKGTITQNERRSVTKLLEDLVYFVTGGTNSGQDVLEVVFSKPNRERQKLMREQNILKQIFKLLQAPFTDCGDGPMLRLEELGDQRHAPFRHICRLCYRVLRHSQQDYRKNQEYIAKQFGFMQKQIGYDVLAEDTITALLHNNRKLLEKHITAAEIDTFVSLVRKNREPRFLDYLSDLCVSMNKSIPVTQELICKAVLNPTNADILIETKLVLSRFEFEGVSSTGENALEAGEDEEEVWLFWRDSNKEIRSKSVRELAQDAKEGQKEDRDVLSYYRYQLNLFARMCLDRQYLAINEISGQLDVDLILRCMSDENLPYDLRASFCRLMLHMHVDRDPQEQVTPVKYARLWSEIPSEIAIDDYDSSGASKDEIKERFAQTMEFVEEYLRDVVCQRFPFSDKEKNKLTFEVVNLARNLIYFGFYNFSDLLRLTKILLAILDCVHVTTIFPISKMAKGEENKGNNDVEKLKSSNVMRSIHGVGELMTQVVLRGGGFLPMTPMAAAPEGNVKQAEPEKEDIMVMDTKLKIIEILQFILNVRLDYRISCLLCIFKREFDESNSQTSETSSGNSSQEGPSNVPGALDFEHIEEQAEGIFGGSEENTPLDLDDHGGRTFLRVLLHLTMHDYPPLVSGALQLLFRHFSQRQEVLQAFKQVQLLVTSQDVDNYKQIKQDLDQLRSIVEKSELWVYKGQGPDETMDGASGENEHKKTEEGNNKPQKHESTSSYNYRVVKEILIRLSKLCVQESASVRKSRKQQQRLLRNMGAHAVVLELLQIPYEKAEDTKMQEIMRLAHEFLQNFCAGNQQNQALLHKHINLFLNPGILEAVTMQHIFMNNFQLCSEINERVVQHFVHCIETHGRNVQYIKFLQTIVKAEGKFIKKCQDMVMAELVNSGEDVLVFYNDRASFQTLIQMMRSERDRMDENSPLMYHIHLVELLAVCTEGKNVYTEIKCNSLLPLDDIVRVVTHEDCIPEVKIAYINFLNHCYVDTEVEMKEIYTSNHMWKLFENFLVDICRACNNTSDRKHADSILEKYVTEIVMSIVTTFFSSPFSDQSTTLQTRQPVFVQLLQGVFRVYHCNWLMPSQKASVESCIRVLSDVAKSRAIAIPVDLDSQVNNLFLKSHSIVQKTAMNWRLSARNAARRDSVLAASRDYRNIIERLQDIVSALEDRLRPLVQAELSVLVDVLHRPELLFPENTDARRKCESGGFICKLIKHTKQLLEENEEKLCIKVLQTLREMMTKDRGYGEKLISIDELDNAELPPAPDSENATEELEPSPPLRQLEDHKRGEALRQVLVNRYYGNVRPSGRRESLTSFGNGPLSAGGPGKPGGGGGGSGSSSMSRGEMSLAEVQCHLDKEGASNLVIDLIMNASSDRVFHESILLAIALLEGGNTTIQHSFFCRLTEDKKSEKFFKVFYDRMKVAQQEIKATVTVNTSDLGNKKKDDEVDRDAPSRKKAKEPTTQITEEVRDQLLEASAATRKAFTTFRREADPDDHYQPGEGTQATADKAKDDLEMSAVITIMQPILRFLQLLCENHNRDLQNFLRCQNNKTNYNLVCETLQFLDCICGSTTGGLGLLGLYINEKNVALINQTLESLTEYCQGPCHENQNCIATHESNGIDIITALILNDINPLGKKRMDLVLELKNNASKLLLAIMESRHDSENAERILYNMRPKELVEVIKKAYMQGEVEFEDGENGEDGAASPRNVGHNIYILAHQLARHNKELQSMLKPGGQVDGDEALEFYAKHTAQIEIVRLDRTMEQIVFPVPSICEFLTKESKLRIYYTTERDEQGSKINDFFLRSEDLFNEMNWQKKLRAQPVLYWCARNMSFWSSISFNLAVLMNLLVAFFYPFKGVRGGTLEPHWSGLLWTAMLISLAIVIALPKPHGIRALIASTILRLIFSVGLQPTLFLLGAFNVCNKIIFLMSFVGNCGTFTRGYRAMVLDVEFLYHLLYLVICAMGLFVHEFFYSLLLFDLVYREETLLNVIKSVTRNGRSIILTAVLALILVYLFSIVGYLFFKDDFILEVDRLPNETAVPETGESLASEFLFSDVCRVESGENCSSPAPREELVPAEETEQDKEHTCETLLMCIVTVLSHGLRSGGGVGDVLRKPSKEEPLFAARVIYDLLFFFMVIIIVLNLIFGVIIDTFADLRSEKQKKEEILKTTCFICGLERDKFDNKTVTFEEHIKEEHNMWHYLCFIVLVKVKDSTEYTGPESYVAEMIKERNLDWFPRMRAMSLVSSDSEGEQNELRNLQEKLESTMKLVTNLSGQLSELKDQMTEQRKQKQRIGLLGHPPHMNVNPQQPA

[11] = biological target: Melanocortin receptor 3 (Homo sapiens) (UniProt P41968); assay: Inhibition of Melanocortin MC3 at 10 µM in the Eurofins-Panlabs radioligand binding assay (Eurofins_assay_251300); set-up: ligand concentration 0.035 nM; details: Compound concentration 10.0 uM
Chain of Melanocortin receptor 3 (Homo sapiens) (P41968 whole entry): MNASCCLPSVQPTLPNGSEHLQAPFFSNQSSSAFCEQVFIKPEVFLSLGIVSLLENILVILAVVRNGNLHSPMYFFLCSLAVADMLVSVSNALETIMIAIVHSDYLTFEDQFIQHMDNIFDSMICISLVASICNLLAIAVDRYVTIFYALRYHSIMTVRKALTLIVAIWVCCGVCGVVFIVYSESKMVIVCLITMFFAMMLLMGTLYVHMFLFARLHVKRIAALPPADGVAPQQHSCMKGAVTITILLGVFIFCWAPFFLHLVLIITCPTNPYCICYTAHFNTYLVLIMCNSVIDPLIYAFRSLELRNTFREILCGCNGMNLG

[12] = biological target: Glutamate NMDA receptor; GRIN1/GRIN2A (Homo sapiens) (UniProt Q05586+Q12879); assay: NMDA-NR1a/NR2a Eurofins-Panlabs radioligand binding assay; assay type: protein-complex assay; details: Compound concentration 10.0 uM
[13] = biological target: Glutamate receptor 2 (Homo sapiens) (UniProt P42262); details: Rattus norvegicus; Compound concentration 10.0 uM

Measured: inhibition

N#CC1(c2ccccn2)CCN(Cc2cc(C(=O)O)c(=O)n3ccccc23)CC1 [MSD-M1PAM]
inactive: [1] 14% | [2] 29% | [3] -4% | [4]; Compound concentration 0.01 uM -4% | [4]; Compound concentration 0.1 uM -5% | [4]; Compound concentration 1.0 uM 4% | [4]; Compound concentration 10.0 uM 50% | [5] 6% | [6] 19% | [7] -9% | Rattus norvegicus -7% | [8] -5% | [9] 14% | [10] -3% | [11] 1% | [12] -6% | [13] -7%
